Data published in ChEMBL document CHEMBL6127131, “Design, Synthesis, and Biological Evaluation of New Selective PDE4 Inhibitors for Topical Treatment of Psoriasis” (J Med Chem, 2024).
Each block holds one compound with its values, some of them ahead of it. Activity calls are given as the source filed them. The rule behind the calls is not given here.

Experiments:
[1] = Metabolic stability in human liver microsomes assessed as half-life preincubated for 2 hrs followed by NADPH regenerating agent addition and measured upto 4 hrs by LC-MS analysis; assay type: ADME, Microsome; conditions: time < 6 hrs
[2] = test system: RAW264.7; experiment: Anti-inflammatory activity against LPS induced mouse RAW264.7 cells assessed as reduction in TNFalpha secretion incubated for 24 hrs by ELISA; assay type: functional, cell-based; conditions: RAW264.7, 24 h
[3] = test system: RAW264.7; experiment: Anti-inflammatory activity against LPS induced mouse RAW264.7 cells assessed as reduction in IL-6 secretion incubated for 24 hrs by ELISA; assay type: functional, cell-based; conditions: RAW264.7, 24 h
[4] = Cytotoxicity against mouse RAW264.7 cells incubated for 24 hrs by CCK8 assay; assay type: toxicity, cell-based
[5] = test system: HaCaT; experiment: Anti-inflammatory activity against M5 induced human HaCaT cells assessed as reduction in TNFalpha secretion incubated for 24 hrs by ELISA; assay type: functional, cell-based
[6] = Cytotoxicity against human HaCaT cells incubated for 24 hrs by CCK8 assay; assay type: toxicity, cell-based
[7] = molecular target: 3',5'-cyclic-AMP phosphodiesterase 4A (Homo sapiens, UniProt P27815); experiment: Inhibition of PDE4A (unknown origin)
Chain of 3',5'-cyclic-AMP phosphodiesterase 4A (P27815 whole entry): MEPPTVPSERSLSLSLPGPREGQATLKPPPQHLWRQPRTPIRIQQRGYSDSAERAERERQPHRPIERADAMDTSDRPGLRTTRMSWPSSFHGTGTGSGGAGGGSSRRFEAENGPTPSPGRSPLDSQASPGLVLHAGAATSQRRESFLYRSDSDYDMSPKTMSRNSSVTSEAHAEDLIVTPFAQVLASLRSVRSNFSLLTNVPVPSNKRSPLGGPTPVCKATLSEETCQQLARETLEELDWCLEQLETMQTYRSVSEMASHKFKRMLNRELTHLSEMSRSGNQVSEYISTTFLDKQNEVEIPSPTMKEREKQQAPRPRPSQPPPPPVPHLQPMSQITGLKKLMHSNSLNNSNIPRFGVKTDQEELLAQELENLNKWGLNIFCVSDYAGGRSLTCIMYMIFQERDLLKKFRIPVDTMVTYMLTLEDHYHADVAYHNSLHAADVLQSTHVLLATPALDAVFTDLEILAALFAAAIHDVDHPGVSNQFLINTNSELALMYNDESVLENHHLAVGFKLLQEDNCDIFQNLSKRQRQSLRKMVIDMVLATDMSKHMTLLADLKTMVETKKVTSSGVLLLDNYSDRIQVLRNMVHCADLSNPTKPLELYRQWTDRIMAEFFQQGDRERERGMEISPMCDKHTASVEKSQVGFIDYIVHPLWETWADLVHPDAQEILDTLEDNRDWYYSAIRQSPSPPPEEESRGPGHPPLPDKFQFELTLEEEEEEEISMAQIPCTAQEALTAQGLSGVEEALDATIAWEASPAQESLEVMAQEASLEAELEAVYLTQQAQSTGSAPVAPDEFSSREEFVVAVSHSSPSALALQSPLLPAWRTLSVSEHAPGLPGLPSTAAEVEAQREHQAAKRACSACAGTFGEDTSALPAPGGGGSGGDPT

[8] = molecular target: Cannabinoid receptor 1 (Homo sapiens) (UniProt P21554); experiment: Inhibition of CB1 (unknown origin) at 10 uM relative to control
Chain of Cannabinoid receptor 1 (Homo sapiens) (P21554 whole entry): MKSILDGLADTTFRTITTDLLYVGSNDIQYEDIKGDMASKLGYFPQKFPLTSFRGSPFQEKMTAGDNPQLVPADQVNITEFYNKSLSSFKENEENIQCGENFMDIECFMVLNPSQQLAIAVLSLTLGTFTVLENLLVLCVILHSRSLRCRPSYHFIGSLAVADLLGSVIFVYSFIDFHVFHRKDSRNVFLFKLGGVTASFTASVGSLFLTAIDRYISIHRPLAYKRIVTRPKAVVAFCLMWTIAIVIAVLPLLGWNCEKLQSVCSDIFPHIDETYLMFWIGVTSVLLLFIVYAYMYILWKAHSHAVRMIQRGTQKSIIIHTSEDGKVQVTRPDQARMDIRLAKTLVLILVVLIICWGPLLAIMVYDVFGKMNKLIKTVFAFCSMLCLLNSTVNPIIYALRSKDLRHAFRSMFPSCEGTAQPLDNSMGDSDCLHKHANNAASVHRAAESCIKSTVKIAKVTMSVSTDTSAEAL

[9] = molecular target: 5-hydroxytryptamine receptor 1B (Homo sapiens) (UniProt P28222); experiment: Inhibition of 5-HT1B (unknown origin) at 10 uM relative to control
Chain of 5-hydroxytryptamine receptor 1B (Homo sapiens) (P28222 whole entry): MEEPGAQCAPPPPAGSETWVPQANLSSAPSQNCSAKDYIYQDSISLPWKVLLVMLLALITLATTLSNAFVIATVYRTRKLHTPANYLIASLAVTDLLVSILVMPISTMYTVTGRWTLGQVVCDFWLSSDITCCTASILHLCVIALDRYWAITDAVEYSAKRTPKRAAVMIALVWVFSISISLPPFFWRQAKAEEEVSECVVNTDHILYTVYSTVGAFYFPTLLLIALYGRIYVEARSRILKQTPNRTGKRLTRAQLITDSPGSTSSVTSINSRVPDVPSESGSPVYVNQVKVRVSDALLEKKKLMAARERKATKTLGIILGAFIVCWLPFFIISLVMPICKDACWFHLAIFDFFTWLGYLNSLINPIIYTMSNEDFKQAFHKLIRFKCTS

[10] = molecular target: D(2) dopamine receptor (Homo sapiens) (UniProt P14416); experiment: Inhibition of D2S (unknown origin) at 10 uM relative to control
Chain of D(2) dopamine receptor (Homo sapiens) (P14416 whole entry): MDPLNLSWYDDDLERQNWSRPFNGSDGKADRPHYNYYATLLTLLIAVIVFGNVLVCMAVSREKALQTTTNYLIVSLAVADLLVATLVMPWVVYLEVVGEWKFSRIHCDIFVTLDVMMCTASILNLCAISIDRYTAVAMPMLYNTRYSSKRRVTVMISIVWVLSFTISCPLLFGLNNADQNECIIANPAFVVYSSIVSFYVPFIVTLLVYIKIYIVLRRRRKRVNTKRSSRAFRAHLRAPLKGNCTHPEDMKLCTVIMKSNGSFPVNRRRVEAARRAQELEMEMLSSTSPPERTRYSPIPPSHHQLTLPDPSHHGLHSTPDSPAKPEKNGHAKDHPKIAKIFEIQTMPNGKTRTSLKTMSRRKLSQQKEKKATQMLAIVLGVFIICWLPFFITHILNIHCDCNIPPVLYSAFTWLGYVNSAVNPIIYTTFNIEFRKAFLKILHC

[11] = AUC(0 to t) in ICR(CD-1) mouse at 5 mg/kg, iv measured upto 24 hrs by LC-MS/MS analysis; assay type: ADME, organism-based; conditions: in vivo
[12] = AUC(0 to infinity) in ICR(CD-1) mouse at 5 mg/kg, iv measured upto 24 hrs by LC-MS/MS analysis; assay type: ADME, organism-based; conditions: in vivo
[13] = Initial plasma concentration in ICR(CD-1) mouse at 5 mg/kg, iv measured upto 24 hrs by LC-MS/MS analysis; assay type: ADME, organism-based
[14] = Half-life in ICR(CD-1) mouse at 5 mg/kg, iv measured upto 24 hrs by LC-MS/MS analysis; assay type: ADME, organism-based; conditions: in vivo
[15] = Apparent volume of distribution in ICR(CD-1) mouse at 5 mg/kg, iv measured upto 24 hrs by LC-MS/MS analysis; assay type: ADME, organism-based; conditions: in vivo, read-out: Vz
[16] = Clearance in ICR(CD-1) mouse at 5 mg/kg, iv measured upto 24 hrs by LC-MS/MS analysis; assay type: ADME, organism-based; conditions: in vivo
[17] = AUC(0 to t) in ICR(CD-1) mouse at 10 mg/kg, po measured upto 24 hrs by LC-MS/MS analysis; assay type: ADME, organism-based; conditions: in vivo
[18] = AUC(0 to infinity) in ICR(CD-1) mouse at 10 mg/kg, po measured upto 24 hrs by LC-MS/MS analysis; assay type: ADME, organism-based; conditions: in vivo
[19] = Cmax in ICR(CD-1) mouse at 10 mg/kg, po measured upto 24 hrs by LC-MS/MS analysis; assay type: ADME, organism-based; conditions: in vivo
[20] = Half-life in ICR(CD-1) mouse at 10 mg/kg, po measured upto 24 hrs by LC-MS/MS analysis; assay type: ADME, organism-based; conditions: in vivo
[21] = Tmax in ICR(CD-1) mouse at 10 mg/kg, po measured upto 24 hrs by LC-MS/MS analysis; assay type: ADME, organism-based; conditions: in vivo
[22] = Oral bioavailability in ICR(CD-1) mouse at 10 mg/kg measured upto 24 hrs by LC-MS/MS analysis; assay type: ADME, organism-based; conditions: in vivo
[23] = Drug concentration in ICR(CD-1) mouse blood at 1.2% administered topically and measured after 1 hr by LC-MS/MS analysis; assay type: ADME, tissue-based; conditions: topical or ocular, route top, read-out: Ct
[24] = Drug concentration in ICR(CD-1) mouse blood at 1.2% administered topically and measured after 2 hrs by LC-MS/MS analysis; assay type: ADME, tissue-based; conditions: topical or ocular, route top, read-out: Ct
[25] = Metabolic stability in monkey liver microsomes assessed as half-life preincubated for 2 hrs followed by NADPH regenerating agent addition and measured upto 4 hrs by LC-MS analysis; assay type: ADME, Macaca mulatta, Microsome; conditions: rhesus monkey, time < 6 hrs
[26] = Metabolic stability in dog liver microsomes assessed as half-life preincubated for 2 hrs followed by NADPH regenerating agent addition and measured upto 4 hrs by LC-MS analysis; assay type: ADME, Canis lupus familiaris, Microsome; conditions: time < 6 hrs
[27] = Metabolic stability in mouse liver microsomes assessed as half-life preincubated for 2 hrs followed by NADPH regenerating agent addition and measured upto 4 hrs by LC-MS analysis; assay type: ADME, Microsome; conditions: time < 6 hrs
[28] = Metabolic stability in rat liver microsomes assessed as half-life preincubated for 2 hrs followed by NADPH regenerating agent addition and measured upto 4 hrs by LC-MS analysis; assay type: ADME, Microsome; conditions: time < 6 hrs
[29] = species: Mus musculus; experiment: Antiinflammatory activity against imiquimod-induced psoriasis in BALB/c mouse model assessed as improvement in clinical features of skin lesions pretreated with IMQ for 4 hrs followed by compound addition once daily from day 2 to 8; assay type: functional, organism-based; conditions: dose 0.3-1.2 %, time 7.0 day
[30] = Toxicity in BALB/c mouse assessed as body weight loss at 0.3 to 1.2% administration as ointment once a day from day 2 to 8; conditions: in vivo, topical_or_ocular, 168 h, dose 0.3-1.2 %, time 7 day
[31] = test system: Mus musculus; experiment: Antiinflammatory activity against imiquimod-induced psoriasis in BALB/c mouse model assessed as reduction in spleen enlargement at 0.3 to 1.2% administration as ointment pretreated with IMQ for 4 hrs followed by compound addition once daily from day 2 to 8; assay type: functional, organism-based; conditions: dose 0.3-1.2 %, time 7.0 day
[32] = test system: Mus musculus; experiment: Antiinflammatory activity against imiquimod-induced psoriasis in BALB/c mouse model assessed as reduction in IL-1beta protein level at 1.2% administration as ointment pretreated with IMQ for 4 hrs followed by compound addition once daily from day 2 to 8 by ELISA; assay type: functional, organism-based; conditions: time 7.0 day
[33] = test system: Mus musculus; experiment: Antiinflammatory activity against imiquimod-induced psoriasis in BALB/c mouse model assessed as reduction in IL-17A protein level at 1.2% administration as ointment pretreated with IMQ for 4 hrs followed by compound addition once daily from day 2 to 8 by ELISA; assay type: functional, organism-based; conditions: time 7.0 day
[34] = test system: Mus musculus; experiment: Antiinflammatory activity against imiquimod-induced psoriasis in BALB/c mouse model assessed as reduction in skin thickness at 0.3 to 1.2% administration as ointment pretreated with IMQ for 4 hrs followed by compound addition once daily from day 2 to 8 by H and E staining based assay; assay type: functional, organism-based; conditions: dose 0.3-1.2 %, time 7.0 day
[35] = test system: Mus musculus; experiment: Antiinflammatory activity against imiquimod-induced psoriasis in BALB/c mouse model assessed as reduction in immune cell infiltration at 0.3 to 1.2% administration as ointment pretreated with IMQ for 4 hrs followed by compound addition once daily from day 2 to 8 by H and E staining based assay; assay type: functional, organism-based; conditions: dose 0.3-1.2 %, time 7.0 day
[36] = test system: RAW264.7; experiment: Downregulation of IL-1beta mRNA expression in LPS induced mouse RAW264.7 cells at 5 to 20 uM preincubated for 12 hrs followed by LPS stimulation for 4 hrs by RT-qPCR analysis; assay type: functional, cell-based; conditions: dose 5-20 µM, time 16.0 hrs
[37] = test system: RAW264.7; experiment: Downregulation of IL-6 mRNA expression in LPS induced mouse RAW264.7 cells at 5 to 20 uM preincubated for 12 hrs followed by LPS stimulation for 4 hrs by RT-qPCR analysis; assay type: functional, cell-based; conditions: dose 5-20 µM, time 16.0 hrs
[38] = test system: RAW264.7; experiment: Downregulation of IL-17A mRNA expression in LPS induced mouse RAW264.7 cells at 5 to 20 uM preincubated for 12 hrs followed by LPS stimulation for 4 hrs by RT-qPCR analysis; assay type: functional, cell-based; conditions: dose 5-20 µM, time 16.0 hrs
[39] = test system: RAW264.7; experiment: Downregulation of TNFalpha mRNA expression in LPS induced mouse RAW264.7 cells at 5 to 20 uM preincubated for 12 hrs followed by LPS stimulation for 4 hrs by RT-qPCR analysis; assay type: functional, cell-based; conditions: dose 5-20 µM, time 16.0 hrs
[40] = test system: RAW264.7; experiment: Upregulation of EPAC1 protein expression in mouse RAW264.7 cells at 5 to 20 uM preincubated for 12 hrs followed by LPS stimulation for 4 hrs by Western blotting analysis; assay type: functional, cell-based; conditions: dose 5-20 µM, time 16.0 hrs
[41] = test system: RAW264.7; experiment: Upregulation of p-CREB1/CREB1 protein ratio in mouse RAW264.7 cells at 5 to 20 uM preincubated for 12 hrs followed by LPS stimulation for 4 hrs by Western blotting analysis; assay type: functional, cell-based; conditions: dose 5-20 µM, time 16.0 hrs
[42] = molecular target: T1, 3',5'-cyclic-AMP phosphodiesterase 4D (Homo sapiens, UniProt Q08499); experiment: Inhibition of PDE4D (unknown origin)
T1 sequence (Q08499 whole entry): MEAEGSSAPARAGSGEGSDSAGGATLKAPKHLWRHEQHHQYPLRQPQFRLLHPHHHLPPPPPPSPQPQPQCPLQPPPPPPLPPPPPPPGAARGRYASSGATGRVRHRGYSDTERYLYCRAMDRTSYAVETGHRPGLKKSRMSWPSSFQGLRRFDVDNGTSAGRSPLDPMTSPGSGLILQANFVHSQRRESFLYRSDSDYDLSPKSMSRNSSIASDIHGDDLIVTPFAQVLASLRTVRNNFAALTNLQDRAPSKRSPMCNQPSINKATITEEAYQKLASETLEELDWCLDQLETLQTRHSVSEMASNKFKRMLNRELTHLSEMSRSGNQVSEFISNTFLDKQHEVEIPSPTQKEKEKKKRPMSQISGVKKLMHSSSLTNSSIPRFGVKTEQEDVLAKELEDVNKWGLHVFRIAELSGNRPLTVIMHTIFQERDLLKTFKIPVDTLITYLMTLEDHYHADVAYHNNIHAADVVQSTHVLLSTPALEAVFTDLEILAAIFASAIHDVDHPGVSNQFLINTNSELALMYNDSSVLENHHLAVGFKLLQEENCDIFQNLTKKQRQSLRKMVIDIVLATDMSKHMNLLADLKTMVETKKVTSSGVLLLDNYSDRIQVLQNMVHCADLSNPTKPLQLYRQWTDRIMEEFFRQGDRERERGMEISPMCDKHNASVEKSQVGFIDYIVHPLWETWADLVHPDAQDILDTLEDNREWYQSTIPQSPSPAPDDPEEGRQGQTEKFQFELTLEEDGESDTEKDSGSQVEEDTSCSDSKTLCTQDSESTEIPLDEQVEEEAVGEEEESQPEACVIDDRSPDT

[43] = molecular target: T1, 3',5'-cyclic-AMP phosphodiesterase 4D; experiment: Inhibition of PDE4D7 (unknown origin)

- half-life [1]: 296 min
- IC50 [2]: 34.2 µM
- IC50 [3]: 40.9 µM
- IC50 [7]: 0.00711 µM
- inhibition [8]: 51.4%
- inhibition [9]: 56.6%
- inhibition [10]: 53.8%
- AUC(0-t) at 24 h [11]: 619 ng·h/mL
- AUC(0-inf) [12]: 620 ng·h/mL
- C0 at 24 h [13]: 5240 ng/mL
- half-life [14]: 16.2 min
- Vd [15]: 3.12 L/kg
- clearance [16]: 135 mL/min/kg
- AUC(0-t) at 24 h [17]: 41 ng·h/mL
- AUC(0-inf) [18]: 51 ng·h/mL
- Cmax [19]: 31 ng/mL
- half-life [20]: 133 min
- Tmax [21]: 64.8 min
- bioavailability [22]: 3.31%
- concentration at 1 h [23]: 0.34 ng/mL
- concentration at 2 h [24]: 0.35 ng/mL
- half-life [25]: 25.6 min
- half-life [26]: 62.1 min
- half-life [27]: 28.6 min
- half-life [28]: 25.3 min
SMILES: O=C(NCc1ncccn1)c1csc(-c2ccc(OC(F)F)c(OCC3CC3)c2)n1
- CC50 at 24 h [4]: > 50 µM
- IC50 [5]: 38.6 µM
- CC50 at 24 h [6]: > 50 µM
- Activity [29]: Dose-Dependent Effect
- Activity [30]: Non-Toxic
- Activity [31]: Active
- Activity [32]: Active
- Activity [33]: Active
- Activity [34]: Active
- Activity [35]: Active
- Activity [36]: Active
- Activity [37]: Active
- Activity [38]: Active
- Activity [39]: Active
- Activity [40]: Active
- Activity [41]: Active

- IC50 [42]: 0.114 µM
SMILES: CCOc1cc([C@@H](CS(C)(=O)=O)N2C(=O)c3csc(NC(C)=O)c3C2=O)ccc1OC

- IC50 [43]: 0.17 µM
SMILES: N#Cc1ccc(Oc2ccc3c(c2)COB3O)cc1 [CRISABOROLE]
